Some test systems named below: MCF7 breast; NCI/ADR-RES ovarian; MDA-MB-435; HS 578T breast; T-47D breast; MDA-MB-231 breast.
Assay in all cases: NCI tumour cell line growth inhibition, 48 h

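Growth conditions: 96-well plates. Treatment: test compound, 48 hours, 5 concentrations. Analysis: linear interpolation between bracketing concentrations; unreached endpoints set to highest concentration. At the GI50, growth is halved. TGI denotes the concentration required for complete inhibition of growth.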

Turning to `O=C(Nc1ccc(S(=O)(=O)Nc2nccs2)cc1)c1cccnc1Nc1cccc(Cl)c1`, the GI50 in the test with MCF7 breast is 12.2 µM; in the test with NCI/ADR-RES ovarian, 15.6 µM; in the test on MDA-MB-435, 14.3 µM; with HS 578T breast, 19.5 µM; with T-47D breast it was 8.42 µM; with MDA-MB-231 breast it was 5.73 µM. Also, the TGI in the test with MCF7 breast is 32.5 µM; in the test on NCI/ADR-RES ovarian, 45.7 µM; in the test on MDA-MB-435 it was 33.4 µM; in the test with HS 578T breast, 67.5 µM; with T-47D breast, > 100 µM; with MDA-MB-231 breast, 21.4 µM.
Consider `Nc1ccccc1C#CC#Cc1ccccc1N`, for which the GI50 is 4.63 µM with NCI/ADR-RES ovarian, 4.6 µM in the test on MDA-MB-435, > 100 µM in the test with T-47D breast and 10.9 µM in the test with MDA-MB-231 breast. For the same compound, the TGI with NCI/ADR-RES ovarian was 29.7 µM; in the test with MDA-MB-435 it was 31.3 µM; in the test with T-47D breast it was > 100 µM; in the test on MDA-MB-231 breast, 24.5 µM.
Regarding `Oc1ccc2ccccc2c1C=NCCCN=Cc1c(O)ccc2ccccc12`, the GI50 is 17.1 µM in the test on MCF7 breast; 14.6 µM in the test with NCI/ADR-RES ovarian; 10.8 µM in the test with MDA-MB-435; 8.05 µM with HS 578T breast; 6.66 µM with T-47D breast; 11.6 µM in the test with MDA-MB-231 breast. The TGI was > 100 µM with MCF7 breast; 49.4 µM in the test with NCI/ADR-RES ovarian; 71.2 µM in the test with MDA-MB-435; 36.7 µM in the test on HS 578T breast; 43 µM in the test on T-47D breast; 30.2 µM with MDA-MB-231 breast.
Take `N#CC1=C(N)Oc2cc3c(cc2C1c1cccs1)OCO3` (centres undefined): the GI50 with MCF7 breast was 0.343 µM; with NCI/ADR-RES ovarian it was 0.232 µM; in the test with HS 578T breast, 0.411 µM; in the test with T-47D breast, 0.595 µM; in the test on MDA-MB-231 breast it was 5.41 µM. Also, the TGI in the test on MCF7 breast was > 62.3 µM; in the test on NCI/ADR-RES ovarian, 0.707 µM; in the test on T-47D breast it was > 70.5 µM; with MDA-MB-231 breast, > 100 µM.
Turning to `O=C1/C(=C/c2cccc([N+](=O)[O-])c2)COc2ccc(O)c(O)c21`, the GI50 is 0.665 µM in the test on MCF7 breast; 2.43 µM with NCI/ADR-RES ovarian; 1.69 µM with MDA-MB-435; 2.04 µM in the test with HS 578T breast; 1.17 µM with T-47D breast; 1.47 µM in the test on MDA-MB-231 breast. The TGI is 2.96 µM in the test with MCF7 breast; 18 µM in the test with NCI/ADR-RES ovarian; 3.77 µM in the test on MDA-MB-435; 7.47 µM with HS 578T breast; 3.92 µM in the test with T-47D breast; 2.98 µM in the test with MDA-MB-231 breast.
On to `Cc1ccc(Nc2nc(NCCO)c3ccccc3n2)cc1C`, for which the GI50 in the test on MCF7 breast was 1.66 µM; in the test with NCI/ADR-RES ovarian it was 7.18 µM; in the test on MDA-MB-435 it was 4 µM; in the test with HS 578T breast it was 12.4 µM; with T-47D breast, 2.29 µM; in the test on MDA-MB-231 breast, 4.22 µM. For the same compound, the TGI turned out to be 16.9 µM in the test with MCF7 breast; 20.6 µM with NCI/ADR-RES ovarian; 15.9 µM in the test with MDA-MB-435; 33.8 µM in the test on HS 578T breast; 10.4 µM in the test with T-47D breast; 16.1 µM in the test with MDA-MB-231 breast.
As for `COc1ccc(C(=O)Cn2c(C(=O)c3ccc(Cl)cc3)nc3ccccc32)cc1`, the GI50 in the test with MCF7 breast is 3 µM; with NCI/ADR-RES ovarian, 5.15 µM; in the test with MDA-MB-435 it was 2.23 µM; in the test on HS 578T breast it was 3.29 µM; with T-47D breast, > 38.9 µM; with MDA-MB-231 breast, 24.8 µM. For the same compound, the TGI was > 100 µM in the test with MCF7 breast; > 37.4 µM in the test with NCI/ADR-RES ovarian; > 23.2 µM in the test with MDA-MB-435; > 23.7 µM with HS 578T breast; > 100 µM in the test with T-47D breast; > 100 µM in the test on MDA-MB-231 breast.
Turning to `O=C(Nc1ccc(-c2nc3cc4ccccc4cc3[nH]2)cc1)c1cccc(Br)c1`, the GI50 with MCF7 breast is 1.97 µM; in the test on NCI/ADR-RES ovarian it was 15.3 µM; in the test with MDA-MB-435, 4.72 µM; in the test with HS 578T breast, 14.3 µM; with T-47D breast, 4.09 µM; in the test on MDA-MB-231 breast it was 3.11 µM. Also, the TGI in the test on MCF7 breast worked out at 10.4 µM; in the test on NCI/ADR-RES ovarian it was 58.6 µM; with MDA-MB-435, 20.4 µM; in the test on HS 578T breast it was 46.2 µM; with T-47D breast, 18.1 µM; in the test with MDA-MB-231 breast, 19.3 µM.
Take `CC(C)C[C@H](NC(=O)[C@H](Cc1ccccc1)n1ccc(N2CCCCC2)cc1=O)B(O)O`: the GI50 is 0.392 µM in the test with MCF7 breast; 17.4 µM with NCI/ADR-RES ovarian; 0.177 µM in the test with MDA-MB-435; 0.427 µM in the test on HS 578T breast; 0.781 µM with T-47D breast; 1.2 µM in the test on MDA-MB-231 breast. For the same compound, the TGI in the test on MCF7 breast was > 100 µM; in the test on NCI/ADR-RES ovarian, > 100 µM; with MDA-MB-435, 0.371 µM; in the test with HS 578T breast it was 6.2 µM; in the test with T-47D breast, 6.09 µM; in the test with MDA-MB-231 breast it was 12.2 µM.
Consider `Cc1ccc(NC(c2ccccc2)c2ccc3cccnc3c2O)cc1` (centres undefined), for which the TGI stood at 16.2 µM with MCF7 breast; 15.2 µM with NCI/ADR-RES ovarian; 19.3 µM with MDA-MB-435; 61.3 µM in the test with HS 578T breast; 36 µM with T-47D breast; 13.5 µM in the test on MDA-MB-231 breast.
As to `COc1ccc(-c2ccc(C3CC(c4ccc(O)cc4)=NN3)o2)c([N+](=O)[O-])c1` (centres undefined), the GI50 in the test with MCF7 breast is 24.4 µM; in the test on NCI/ADR-RES ovarian, 38.5 µM; with MDA-MB-435, 30 µM; in the test with HS 578T breast it was 34.7 µM; in the test on T-47D breast, 75 µM. The TGI in the test on MCF7 breast is 74.4 µM; with NCI/ADR-RES ovarian, > 100 µM; in the test with MDA-MB-435 it was > 100 µM; in the test on HS 578T breast it was > 100 µM; in the test on T-47D breast it was > 100 µM.
On to `CC1=C(C)C(=O)c2c(c(C(=O)c3ccccc3)c3nc4ccccc4n3c2C)C1=O`, for which the GI50 in the test with MCF7 breast is 70.1 µM; with NCI/ADR-RES ovarian it was > 100 µM; in the test on MDA-MB-435, > 100 µM; with HS 578T breast, 35.4 µM; in the test with T-47D breast it was > 100 µM; in the test with MDA-MB-231 breast it was 17.7 µM. Besides, the TGI with MCF7 breast is > 100 µM; with NCI/ADR-RES ovarian, > 100 µM; in the test with MDA-MB-435 it was > 100 µM; in the test on HS 578T breast, > 100 µM; in the test with T-47D breast, > 100 µM; in the test on MDA-MB-231 breast, 46 µM.

The values above are taken from PubChem BioAssay (NCI).
